From ChEMBL document CHEMBL1177872, “Inhibitors of the RET tyrosine kinase based on a 2-(alkylsulfanyl)-4-(3-thienyl)nicotinonitrile scaffold” (Eur J Med Chem, 2010)

What was measured:
TPC1 = assay: Antiproliferative activity against human TPC1 cells expressing RET/PCT1 after 72 hrs by [3H]thymidine incorporation assay
ARO = assay: Antiproliferative activity against human RET deficient ARO cells after 72 hrs by [3H]thymidine incorporation assay
[1] = target: Tyrosine-protein kinase ABL1 (Homo sapiens, UniProt P00519)
Tyrosine-protein kinase ABL1, sequence (P00519 whole entry): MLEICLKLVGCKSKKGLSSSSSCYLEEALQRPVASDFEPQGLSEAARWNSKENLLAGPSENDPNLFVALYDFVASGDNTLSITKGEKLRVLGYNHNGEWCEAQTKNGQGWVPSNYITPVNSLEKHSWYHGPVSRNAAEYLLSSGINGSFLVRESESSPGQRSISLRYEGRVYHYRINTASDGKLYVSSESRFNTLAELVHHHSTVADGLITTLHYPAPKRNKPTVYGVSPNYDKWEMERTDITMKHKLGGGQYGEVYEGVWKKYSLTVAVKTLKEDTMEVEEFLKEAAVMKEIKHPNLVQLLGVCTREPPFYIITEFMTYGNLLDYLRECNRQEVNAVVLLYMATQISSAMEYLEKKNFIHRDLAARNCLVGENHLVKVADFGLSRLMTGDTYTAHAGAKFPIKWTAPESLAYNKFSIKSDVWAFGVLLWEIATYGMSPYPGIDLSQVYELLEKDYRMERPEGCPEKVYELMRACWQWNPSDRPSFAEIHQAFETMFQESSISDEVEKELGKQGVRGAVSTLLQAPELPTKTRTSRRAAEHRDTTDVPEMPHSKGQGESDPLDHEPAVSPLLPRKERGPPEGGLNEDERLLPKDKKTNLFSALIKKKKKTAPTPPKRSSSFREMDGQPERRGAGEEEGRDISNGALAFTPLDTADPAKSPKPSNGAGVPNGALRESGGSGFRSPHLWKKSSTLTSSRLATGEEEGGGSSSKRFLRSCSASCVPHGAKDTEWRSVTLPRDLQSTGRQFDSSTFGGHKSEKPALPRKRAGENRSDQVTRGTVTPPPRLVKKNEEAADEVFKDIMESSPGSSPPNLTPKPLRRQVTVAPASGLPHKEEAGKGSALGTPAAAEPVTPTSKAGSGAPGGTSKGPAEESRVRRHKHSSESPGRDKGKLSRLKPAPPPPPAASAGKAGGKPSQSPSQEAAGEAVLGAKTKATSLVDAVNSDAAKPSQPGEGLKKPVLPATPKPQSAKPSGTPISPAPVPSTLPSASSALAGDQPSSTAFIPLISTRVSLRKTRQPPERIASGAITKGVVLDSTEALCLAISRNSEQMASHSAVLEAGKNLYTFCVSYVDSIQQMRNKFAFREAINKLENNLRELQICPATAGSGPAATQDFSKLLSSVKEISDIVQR
Description: Inhibition of human recombinant histidine-tagged ABL (230-517) expressed in Sf9 cells by ELISA

cells = settings: Homo sapiens, LS174T
Description: Antiproliferative activity against human RET deficient LS 174T cells after 72 hrs by [3H]thymidine incorporation assay

IC50 [1] [µM]	IC50 (cells) [µM]	SMILES	IC50 (TPC1) [µM]	IC50 (ARO) [µM]
60	92	N#Cc1c(N)nc(SCC(=O)c2ccc(Cl)cc2)c(C#N)c1-c1ccsc1	28	159
> 150	> 300	N#Cc1c(SCC(=O)c2ccccc2)nc2c(c1-c1ccsc1)CCCC2	> 300	–
–	–	COc1cc2/c(=N/c3ccc(Br)cc3F)nc[nH]c2cc1OCC1CCN(C)CC1 [VANDETANIB]	0.116	–
74	> 300	N#Cc1c(SCc2ccc(F)cc2)nc2c(c1-c1cccs1)CCCC2	101	> 300
72	6.2	N#Cc1c(SCc2ccccc2)nc2c(c1-c1cccs1)CCCC2	17	8.5

SMILES	IC50 [1] [µM]	IC50 (cells) [µM]	IC50 (TPC1) [µM]	IC50 (ARO) [µM]
N#Cc1c(N)nc(SCC(=O)c2ccccc2)c(C#N)c1-c1ccsc1	0.29	> 300	> 300	> 300
